Among the data in US8334126B2, “Coryneform host-vector systems comprising a chromosomal ALR gene which is attenuated or eliminated and methods of using” (priority 2000, dated 2012) are Minimum inhibitory concentration values, retold here.

SMILES strings stand for the structures.

In experiment [1] the test system is Corynebacterium glutamicum ATCC13032[pTET3]. Briefly: Minimum inhibitory concentration, dilution antimicrobial susceptibility test (NCCLS M7-A4). Format: cell-based. The conditions noted are these: transformed strain ATCC13032[pTET3]; MÜLLER-HINTON-Bouillon.
Text: (§1) The nutrient medium required for this test, “MÜLLER-HINTON-Bouillon”, was obtained from Merck KgaA (Darmstadt, Germany) and employed in accordance with the manufacturer's instructions. […] The plasmid DNA isolated from Corynebacterium glutamicum LP-6 with the aid of an alkaline lysis method (“NucleoBond Nucleic Acid Purification Kits and Cartridges User Manual (PT3167-1)”, Clonetech Laboratories GmbH, Heidelberg, Germany, 1997 I.B.R.) was then transferred to Corynebacterium glutamicum ATCC13032 by electrotransfer.
Experiment [2] relates to Corynebacterium glutamicum LP-6. The conditions noted are these: resistant test strain LP-6; MÜLLER-HINTON-Bouillon.
Text: as §1
Experiment [3] relates to Corynebacterium glutamicum ATCC13032. Briefly: Minimum inhibitory concentration, dilution antimicrobial susceptibility test (NCCLS M7-A4). Format: cell-based. The conditions noted are these: sensitive control strain ATCC13032; MÜLLER-HINTON-Bouillon.
Text: as §1

With `CN(C)[C@@H]1C(O)=C(C(N)=O)C(=O)[C@@]2(O)C(O)=C3C(=O)c4c(O)cccc4[C@@](C)(O)[C@H]3C[C@@H]12` [Tetracycline, tetracycline], the Minimum inhibitory concentration entry in experiment [1] was “≦12 μg tetracycline per ml”; in experiment [2], “≦12 μg tetracycline per ml”; in experiment [3], “≦0.75 μg tetracycline per ml”.
